Key:
Assay in all cases: relative viability (nuclei count vs DMSO), 5 days (fraction); higher = more cells survive
IDH-C35 + OSI-027 = compound: Cc1ccccc1C(C(=O)NC1CCCCC1)N(C(=O)Cn1ccnc1C)c1cccc(F)c1 [IDH-C35] + COc1cccc2cc(-c3nc([C@H]4CC[C@H](C(=O)O)CC4)n4ncnc(N)c34)[nH]c12 [OSI-027] (partner 0.5 µM)
In short: (§1)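 Relative viability is defined as nuclei in treated wells over nuclei in vehicle wells. Duplicate plates were run and medians reported. Lung cancer cell lines in 1536-well plates were dosed by pin tool one day after seeding, with one drug or with a fixed anchor-drug dose plus five library-drug doses (not always all listed) in √10 steps, and nuclei were counted after 5 days.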

[1] = compound: CC1=C(C(=NN1)C)CC2=C(C3=C(S2)N(C(=O)N(C3=O)C)CC(C)C)C(=O)N4C[C@@H](CO4)O + Nc1nc2[nH]cc(CCc3ccc(C(=O)N[C@@H](CCC(=O)O)C(=O)O)cc3)c2c(=O)[nH]1 [Pemetrexed] (partner 0.2 µM)
In short: as §1

IDH-C35 + Decitabine = compound: Cc1ccccc1C(C(=O)NC1CCCCC1)N(C(=O)Cn1ccnc1C)c1cccc(F)c1 [IDH-C35] + Nc1ncn([C@H]2C[C@H](O)[C@@H](CO)O2)c(=O)n1 [Decitabine] (partner 2 µM)
In short: as §1

IDH-C35 + Olaparib = compound: Cc1ccccc1C(C(=O)NC1CCCCC1)N(C(=O)Cn1ccnc1C)c1cccc(F)c1 [IDH-C35] + O=C(c1cc(Cc2n[nH]c(=O)c3ccccc23)ccc1F)N1CCN(C(=O)C2CC2)CC1 [Olaparib] (partner 8 µM)
In short: as §1

Cell Line	relative viability (IDH-C35 + OSI-027; first compound 0.08 µM)	relative viability (IDH-C35 + OSI-027; first compound 0.253 µM)	relative viability (IDH-C35 + OSI-027; first compound 0.8 µM)	relative viability (IDH-C35 + OSI-027; first compound 2.53 µM)	relative viability (IDH-C35 + OSI-027; first compound 8 µM)	relative viability ([1]; first compound 0.0025 µM)	relative viability ([1]; first compound 0.007906 µM)	relative viability ([1]; first compound 0.025 µM)	relative viability ([1]; first compound 0.07906 µM)	relative viability ([1]; first compound 0.25 µM)	relative viability (IDH-C35 + Decitabine; first compound 0.08 µM)	relative viability (IDH-C35 + Decitabine; first compound 0.253 µM)	relative viability (IDH-C35 + Decitabine; first compound 0.8 µM)	relative viability (IDH-C35 + Decitabine; first compound 2.53 µM)	relative viability (IDH-C35 + Decitabine; first compound 8 µM)	relative viability (IDH-C35 + Olaparib; first compound 0.08 µM)	relative viability (IDH-C35 + Olaparib; first compound 0.253 µM)	relative viability (IDH-C35 + Olaparib; first compound 0.8 µM)	relative viability (IDH-C35 + Olaparib; first compound 2.53 µM)	relative viability (IDH-C35 + Olaparib; first compound 8 µM)
NCI-H1915	0.645	0.602	0.62	0.597	0.56	0.497	0.465	0.466	0.497	0.53	0.278	0.248	0.293	0.281	0.277	0.267	0.269	0.245	0.274	0.256
NCI-H596	0.787	0.806	0.709	–	0.629	0.481	0.544	0.484	0.481	0.488	1.06	1.04	0.933	0.853	1.02	0.591	0.653	0.773	0.751	0.785
NCI-H322M	0.585	0.566	0.628	0.549	0.511	0.526	0.61	0.645	0.629	0.578	0.686	0.701	0.695	0.718	0.78	0.616	0.796	0.794	0.789	0.845
NCI-H522	0.784	0.658	0.74	0.669	0.674	1.14	1.37	0.98	0.54	0.643	0.604	0.795	0.72	0.652	0.716	0.594	0.687	0.657	0.59	0.746
NCI-H647	0.683	0.676	0.573	0.569	0.665	0.194	0.177	0.173	0.199	0.195	0.45	0.344	0.401	0.42	0.366	0.453	0.516	0.435	0.586	0.508
SK-MES-1	0.634	0.598	0.604	0.597	0.508	1.08	0.988	0.857	0.967	0.988	0.294	0.39	0.379	0.362	0.377	0.737	0.728	0.609	0.693	0.631
NCI-H2170	0.669	0.661	0.739	0.71	0.676	0.261	0.274	0.252	0.248	0.266	0.428	0.451	0.482	0.507	0.457	0.616	0.654	0.587	0.571	0.593
NCI-H2085	0.772	0.929	0.722	0.741	0.638	0.926	0.93	0.73	0.987	0.476	0.543	0.549	0.554	0.569	0.465	0.807	0.776	0.77	0.789	0.712
SW 1573	0.779	0.798	0.648	0.763	0.753	0.759	1.05	0.773	0.853	0.981	0.491	0.628	0.564	0.544	0.465	0.5	0.54	0.496	0.433	0.467
NCI-H441	0.617	0.647	0.538	0.675	0.579	0.253	0.299	0.263	0.244	0.263	0.279	0.23	0.272	0.244	0.228	0.627	0.638	0.595	0.468	0.557
LOU-NH91	0.742	0.76	0.743	0.716	0.732	0.404	0.362	0.402	0.366	0.365	0.808	0.799	0.795	0.767	0.799	0.949	0.976	0.888	0.852	0.919
NCI-H3122	1.03	1.04	0.929	0.917	0.948	0.196	0.202	0.185	0.187	0.216	0.432	0.428	0.386	0.473	0.458	0.583	0.537	0.587	0.623	0.665
NCI-H460	0.659	0.757	0.681	0.644	0.602	0.0637	0.0564	0.0621	0.0635	0.0733	0.541	0.46	0.482	0.467	0.466	0.416	0.419	0.439	0.387	0.367
NCI-H650	0.558	0.571	0.466	–	0.509	0.983	0.989	0.775	0.949	0.957	0.304	0.339	0.371	–	0.313	0.334	0.393	0.366	–	0.376
NCI-H661	0.756	0.68	0.725	0.695	0.746	0.922	0.973	0.899	0.924	0.899	0.566	0.541	0.546	0.535	0.602	0.758	0.743	0.738	0.71	0.688
NCI-H1793	0.225	0.256	0.279	–	0.262	0.973	1.13	0.883	0.825	0.609	0.519	0.454	0.535	0.586	0.476	0.934	0.903	0.932	0.862	0.859

Source: the supplement of paper PMC10307832
